# Laboratory results: article PMC6598159 (ACS Central Science, 2019)
# Experiment: CYP reaction phenotyping in HLM with selective CYP inhibitors
# Settings: ketoconazole 1 or 10 μM; ticlopidine 20 μM; mitragynine 2 μM
structure (smiles),measurement,value
CC(=O)N1CCN(c2ccc(OCC3COC(Cn4ccnc4)(c4ccc(Cl)cc4Cl)O3)cc2)CC1 (centres unmarked) [ketoconazole],effect on decomposition of mitragynine in HLM,robustly inhibited
same,effect on formation of 7-OH from mitragynine in HLM,robustly inhibited
